Where a SMILES comes first, the peptide text is derived from it. Bridges are numbered along the chain shown (N, C = ends). [ ]: non-standard residue; d: D form. 2Nal = N[C@@H](Cc1ccc2ccccc2c1)C(=O)O; NMeR = CN[C@@H](CCCNC(=N)N)C(=O)O; NMeE = CN[C@@H](CCC(=O)O)C(=O)O; NMeQ = CN[C@@H](CCC(N)=O)C(=O)O; Cha = N[C@@H](CC1CCCCC1)C(=O)O; Cba = N[C@@H](CC1CCC1)C(=O)O; S5 = C=CCCC[C@](C)(N)C(=O)O; βAla = NCCC(=O)O
System: Colo320DM
Assay: Colo320DM cell viability
Format: cell-based, human
Text: In some embodiments, a polypeptide described herein inhibits binding of BLC9 to β-catenin when assessed in a cell-viability assay. In some embodiments, the cell-viability assay is a CellTiterGlo luminescent assay, wherein the viability of cells is quantitatively measured. Various cell lines, transformed cell lines or primary cells derived from a healthy subject or subject suffering from a disease can be used in this assay.

Row | Compound | IC50 [nM]
1 | CC[C@H](C)[C@@H]1NC(=O)[C@@](C)(NC(=O)[C@H](CCCNC(=N)N)NC(=O)[C@H](CC(C)C)NC(=O)[C@]2(C)CCCC=CCCC[C@](C)(NC(=O)[C@H](CCC(=O)O)NC(=O)[C@H](CCCNC(=N)N)NC(C)=O)C(=O)N[C@@H](CO)C(=O)N[C@@H](CC(C)C)C(=O)N[C@@H](CCC(N)=O)C(=O)N2)CCCC=CCCC[C@@](C)(C(=O)N[C@@H](CC(C)C)C(=O)N[C@@H](Cc2ccc3ccccc3c2)C(N)=O)NC(=O)[C@H](CCCNC(=N)N)NC(=O)[C@H](CCC(N)=O)NC1=O [SEQ ID NO: 39, REXSLQXLRZIQRZL(2-Nal)] (Ac-RE[S5]SLQ[S5]LR[S5]IQR[S5]L[2Nal]-NH2; staple 3-7, 10-14) | 560
2 | CC[C@H](C)[C@@H]1NC(=O)[C@@](C)(NC(=O)[C@H](CCCNC(=N)N)NC(=O)[C@H](CC(C)C)NC(=O)[C@]2(C)CCCC=CCCC[C@](C)(NC(=O)[C@H](CCC(=O)O)NC(=O)[C@H](CCCNC(=N)N)NC(C)=O)C(=O)N[C@@H](CO)C(=O)N[C@@H](CC(C)C)C(=O)N[C@@H](CCC(N)=O)C(=O)N2)CCCC=CCCC[C@@](C)(C(=O)N[C@@H](CC(C)C)C(=O)N[C@@H](Cc2ccc3ccccc3c2)C(=O)NCCC(=O)NCCC(N)=O)NC(=O)[C@H](CCCNC(=N)N)NC(=O)[C@H](CCC(N)=O)NC1=O [SEQ ID NO: 40, REXSLQXLRZIQRZL(2-Nal)(β-Ala)(β-Ala)] (Ac-RE[S5]SLQ[S5]LR[S5]IQR[S5]L[2Nal][βAla][βAla]-NH2; staple 3-7, 10-14) | 830
3 | CC[C@H](C)[C@@H]1NC(=O)[C@@](C)(NC(=O)[C@H](CCCNC(=N)N)NC(=O)[C@H](CC(C)C)NC(=O)[C@]2(C)CCCC=CCCC[C@](C)(NC(=O)[C@H](CCC(=O)O)NC(=O)[C@H](CCCNC(=N)N)NC(=O)[C@@H](N)Cc3c[nH]cn3)C(=O)N[C@@H](CO)C(=O)N[C@@H](CC(C)C)C(=O)N[C@@H](CCC(N)=O)C(=O)N2)CCCC=CCCC[C@@](C)(C(=O)N[C@@H](CC2CCC2)C(=O)N[C@@H](Cc2ccc3ccccc3c2)C(=O)O)NC(=O)[C@H](CCCNC(=N)N)NC(=O)[C@H](CCC(N)=O)NC1=O [SEQ ID NO: 82, HREXSLQXLRZIQRZ(CBA)(2-Nal)] (H-HRE[S5]SLQ[S5]LR[S5]IQR[S5][Cba][2Nal]-OH; staple 4-8, 11-15) | > 5000
4 | CC[C@H](C)[C@@H]1NC(=O)[C@@](C)(NC(=O)[C@H](CCCNC(=N)N)NC(=O)[C@H](CC(C)C)NC(=O)[C@]2(C)CCCC=CCCC[C@](C)(NC(=O)[C@H](CCCNC(=N)N)NC(=O)[C@H](CCC(N)=O)NC(=O)[C@H](CCCNC(=N)N)NC(=O)[C@H](Cc3c[nH]cn3)NC(C)=O)C(=O)N[C@@H](CC(C)C)C(=O)N[C@@H](CCC(N)=O)C(=O)N2)CCCC=CCCC[C@@](C)(C(=O)N[C@@H](CC2CCC2)C(=O)N[C@@H](Cc2ccc3ccccc3c2)C(N)=O)NC(=O)[C@H](CCCNC(=N)N)NC(=O)[C@H](CCC(N)=O)NC1=O [SEQ ID NO: 90, HRQRXLQXLRZIQRZ(CBA)(2-Nal)] (Ac-HRQR[S5]LQ[S5]LR[S5]IQR[S5][Cba][2Nal]-NH2; staple 5-8, 11-15) | 1830
5 | CC[C@H](C)[C@@H]1NC(=O)[C@@](C)(NC(=O)[C@H](CCCNC(=N)N)NC(=O)[C@H](CC2CCCCC2)NC(=O)[C@]2(C)CCCC=CCCC[C@](C)(NC(=O)[C@H](CCCNC(=N)N)NC(=O)[C@H](CCC(N)=O)NC(=O)[C@H](CCCNC(=N)N)NC(=O)[C@H](Cc3c[nH]cn3)NC(C)=O)C(=O)N[C@@H](CC(C)C)C(=O)N[C@@H](CCC(N)=O)C(=O)N2)CCCC=CCCC[C@@](C)(C(=O)N[C@@H](CC2CCCCC2)C(=O)N[C@@H](Cc2ccc3ccccc3c2)C(N)=O)NC(=O)[C@H](CCCNC(=N)N)NC(=O)[C@H](CCC(N)=O)NC1=O [SEQ ID NO: 92, HRQRXLQX(Cha)RZIQRZ(Cha)(2-Nal)] (Ac-HRQR[S5]LQ[S5][Cha]R[S5]IQR[S5][Cha][2Nal]-NH2; staple 5-8, 11-15) | 2540
6 | CC[C@H](C)[C@@H]1NC(=O)[C@@](C)(NC(=O)[C@H](CCCNC(=N)N)NC(=O)[C@H](CC(C)C)NC(=O)[C@@H](NC(=O)[C@H](CCC(N)=O)NC(=O)[C@H](CC(C)C)NC(C)=O)[C@@H](C)O)CCCC=CCCC[C@@](C)(C(=O)N[C@@H](CC2CCC2)C(=O)N[C@@H](Cc2ccc3ccccc3c2)C(N)=O)NC(=O)[C@H](CCCNC(=N)N)NC(=O)[C@H](CCC(N)=O)NC1=O [SEQ ID NO: 107, LQTLRXIQRX(CBA)(2-Nal)] (Ac-LQTLR[S5]IQR[S5][Cba][2Nal]-NH2; staple 6-10) | > 5000
7 | CC[C@H](C)[C@@H]1NC(=O)[C@@](C)(NC(=O)[C@H](CCCNC(=N)N)NC(=O)[C@H](CC(C)C)NC(=O)[C@@H](NC(=O)[C@H](CCC(=O)O)NC(=O)[C@H](CC(C)C)NC(C)=O)[C@@H](C)O)CCCC=CCCC[C@@](C)(C(=O)N[C@@H](CC2CCC2)C(=O)N[C@@H](Cc2ccc3ccccc3c2)C(N)=O)NC(=O)[C@H](CCCNC(=N)N)NC(=O)[C@H](CCC(N)=O)NC1=O [SEQ ID NO: 109, LETLRXIQRX(CBA)(2-Nal)] (Ac-LETLR[S5]IQR[S5][Cba][2Nal]-NH2; staple 6-10) | > 5000
8 | CC[C@H](C)[C@@H]1NC(=O)[C@@](C)(NC(=O)[C@H](CCCNC(=N)N)NC(=O)[C@H](CC(C)C)NC(=O)[C@@H](NC(=O)[C@H](CCC(N)=O)N(C)C(=O)[C@H](CC(C)C)NC(=O)[C@H](CO)NC(=O)[C@H](CCCNC(=N)N)NC(=O)[C@H](CCC(N)=O)NC(=O)[C@H](CCCNC(=N)N)NC(=O)[C@H](Cc2c[nH]cn2)NC(C)=O)[C@@H](C)O)CCCC=CCCC[C@@](C)(C(=O)N[C@@H](CC2CCC2)C(=O)N[C@@H](Cc2ccc3ccccc3c2)C(N)=O)NC(=O)[C@H](CCCNC(=N)N)NC(=O)[C@H](CCC(N)=O)NC1=O [SEQ ID NO: 153, HRQRSL(N-methylQ)TLRXIQRX(CBA)(2-Nal)] (Ac-HRQRSL[NMeQ]TLR[S5]IQR[S5][Cba][2Nal]-NH2; staple 11-15; N-terminus and C-terminus assumed) | 2560

The remaining lines, values ahead:

Row | IC50 [nM] | Compound
9 | 2680 | CC[C@H](C)[C@@H]1NC(=O)[C@@](C)(NC(=O)[C@H](CCCNC(=N)N)NC(=O)[C@H](CC(C)C)NC(=O)[C@@H](NC(=O)[C@H](CCC(N)=O)NC(=O)[C@H](CC(C)C)NC(=O)[C@H](CO)NC(=O)[C@H](CCCNC(=N)N)NC(=O)[C@H](CCC(=O)O)NC(=O)[C@H](CCCNC(=N)N)NC(=O)[C@H](Cc2c[nH]cn2)NC(C)=O)[C@@H](C)O)CCCC=CCCC[C@@](C)(C(=O)N[C@@H](CC2CCC2)C(=O)N[C@@H](Cc2ccc3ccccc3c2)C(N)=O)NC(=O)[C@H](C)NC(=O)[C@H](CCC(N)=O)NC1=O [SEQ ID NO: 29, HRERSLQTLRXIQAX(CBA)(2-Nal)] (Ac-HRERSLQTLR[S5]IQA[S5][Cba][2Nal]-NH2; staple 11-15)
10 | 3340 | CC[C@H](C)[C@@H]1NC(=O)[C@@](C)(NC(=O)[C@H](CCCNC(=N)N)NC(=O)[C@H](CC(C)C)NC(=O)[C@@H](NC(=O)[C@]2(C)CCCC=CCCC[C@](C)(NC(=O)[C@H](CCCNC(=N)N)NC(=O)[C@H](Cc3c[nH]cn3)NC(C)=O)C(=O)N[C@@H](CCCNC(=N)N)C(=O)N[C@@H](CO)C(=O)N[C@@H](CC(C)C)C(=O)N2)[C@@H](C)O)CCCC=CCCC[C@@](C)(C(=O)N[C@@H](CC2CCC2)C(=O)N[C@@H](Cc2ccc3ccccc3c2)C(N)=O)NC(=O)[C@H](CCCNC(=N)N)NC(=O)[C@H](CCC(N)=O)NC1=O [SEQ ID NO: 94, HRXRSLXTLRZIQRZ(CBA)(2-Nal)] (Ac-HR[S5]RSL[S5]TLR[S5]IQR[S5][Cba][2Nal]-NH2; staple 3-7, 11-15)
11 | > 5000 | CC[C@H](C)[C@@H]1NC(=O)[C@@](C)(NC(=O)[C@H](CCCNC(=N)N)NC(=O)[C@H](CC(C)C)NC(=O)[C@@H](NC(=O)[C@H](CCC(N)=O)NC(=O)[C@H](CC(C)C)NC(=O)[C@H](CO)NC(=O)[C@H](CCCNC(=N)N)NC(=O)[C@H](CCC(=O)O)NC(=O)[C@H](CCCNC(=N)N)NC(=O)[C@H](Cc2c[nH]cn2)NC(C)=O)[C@@H](C)O)CCCC=CCCC[C@@](C)(C(=O)N[C@@H](CC2CCC2)C(=O)N[C@@H](Cc2ccc3ccccc3c2)C(N)=O)NC(=O)[C@H](CCC(N)=O)NC(=O)[C@H](CCC(N)=O)NC1=O [SEQ ID NO: 145, HRERSLQTLRXIQQX(CBA)(2-Nal)] (Ac-HRERSLQTLR[S5]IQQ[S5][Cba][2Nal]-NH2; staple 11-15)
12 | 3100 | CC[C@H](C)[C@@H]1NC(=O)[C@@](C)(NC(=O)[C@H](CCCNC(=N)N)NC(=O)[C@H](CC(C)C)NC(=O)[C@@H](NC(=O)[C@H](CCC(N)=O)NC(=O)[C@H](CC(C)C)NC(=O)[C@H](CO)NC(=O)[C@H](CCCNC(=N)N)NC(=O)[C@H](CCC(=O)O)N(C)C(=O)[C@H](CCCNC(=N)N)NC(=O)[C@H](Cc2c[nH]cn2)NC(C)=O)[C@@H](C)O)CCCC=CCCC[C@@](C)(C(=O)N[C@@H](CC2CCC2)C(=O)N[C@@H](Cc2ccc3ccccc3c2)C(N)=O)NC(=O)[C@H](CCCNC(=N)N)NC(=O)[C@H](CCC(N)=O)NC1=O [SEQ ID NO: 151, HR(N-methylE)RSLQTLRXIQRX(CBA)(2-Nal)] (Ac-HR[NMeE]RSLQTLR[S5]IQR[S5][Cba][2Nal]-NH2; staple 11-15)
13 | > 5000 | CC[C@H](C)[C@@H]1NC(=O)[C@@](C)(NC(=O)[C@H](CCCNC(=N)N)N(C)C(=O)[C@H](CC(C)C)NC(=O)[C@@H](NC(=O)[C@H](CCC(N)=O)NC(=O)[C@H](CC(C)C)NC(=O)[C@H](CO)NC(=O)[C@H](CCCNC(=N)N)NC(=O)[C@H](CCC(=O)O)NC(=O)[C@H](CCCNC(=N)N)NC(=O)[C@H](Cc2c[nH]cn2)NC(C)=O)[C@@H](C)O)CCCC=CCCC[C@@](C)(C(=O)N[C@@H](CC2CCC2)C(=O)N[C@@H](Cc2ccc3ccccc3c2)C(=O)O)NC(=O)[C@H](CCCNC(=N)N)NC(=O)[C@H](CCC(N)=O)NC1=O [SEQ ID NO: 152, HRERSLQTL(N-methylR)XIQRX(CBA)(2-Nal)] (Ac-HRERSLQTL[NMeR][S5]IQR[S5][Cba][2Nal]-OH; staple 11-15)
